The nature of the series: Human HepG2 cell viability assay in 384 well format. Format: toxicity, cell-based. Further details: dose 125 nL, time 70.5 hour; cytotoxicity at 70.5 h: concentration not given beside the values. Particulars: HepG2 cells, read-out: Inhibition.

Regarding `Cc1ccc(OC2(C(=O)O)CCN(C/C=C/c3ccco3)CC2)c(C)n1`, the cytotoxicity at 70.5 h was -7.06%. With `CCC[C@@H]1CN(Cc2cc3c(cc2OC)OCCO3)C[C@H]1C(=O)O` the figure was -1.36%; with `CSCC(=O)N[C@H]1CN(CC2CCOCC2)C[C@@H]1c1ccccc1`, -4.95%; with `N#Cc1ccccc1CN1CCCC(c2nccn2CC2CCC2)C1` (configuration not stated), -11%. Take `c1ccc(-c2ncc(CN3CCCCC3CCn3cccn3)cn2)nc1` (configuration not stated): the cytotoxicity at 70.5 h was -4.71%.

In the case of `CCc1cnc(N)nc1N[C@@H](C)c1ncccc1C`, the cytotoxicity at 70.5 h is -12.4%. On to `COCCN1CCCC2(CCN(Cc3noc(C4CCCC4)n3)C2)C1=O` (configuration not stated), for which the cytotoxicity at 70.5 h was -4.8%. Regarding `c1cn(Cc2ccc(N3CCCN(C4CCCC4)CC3)nc2)cn1`, the cytotoxicity at 70.5 h amounted to 38.7%. For the compound `COc1ccc(F)c(CN2CCCC3(CCN(C(=O)CSC)C3)C2)c1` (configuration not stated), the cytotoxicity at 70.5 h amounted to 8.81%.

On to `Cc1cc(C(=O)N2CCCC(c3nccn3C)C2)cc(S(N)(=O)=O)c1C` (configuration not stated), for which the cytotoxicity at 70.5 h is -5.68%. For `COc1cccc([C@@H]2CN(C3CCCC3)C[C@H]2C(=O)O)c1`, the cytotoxicity at 70.5 h was -2.63%.

For `Cc1cnc(NC(C)Cc2cccnc2)nc1N(C)C` (configuration not stated), the cytotoxicity at 70.5 h came to 0.166%.

On to `Cc1cc(C(N)=O)c(N2C[C@@H](C)[C@@](C)(O)C2)nc1C`, for which the cytotoxicity at 70.5 h was -7.31%. The value for `COc1ccc(CN2CC3(CCNCC3)CCC2=O)c(F)c1F` was 15.3%; that for `CC(C)(C)c1cc(CNC(=O)c2cc(COc3ccccc3)[nH]n2)[nH]n1` was 8.48%; that for `Cc1nc(N)nc(C)c1CC(=O)N1CCC2(CC1)OCCCC2O` (configuration not stated) was -13.9%. With `CCC[C@@H]1CN(Cc2cnc(-c3cccs3)nc2)C[C@H]1C(=O)O` the figure was -0.697%; with `O=C(c1ccc(C2CCCN2)s1)N1CCC2(CCCO2)CC1` (configuration not stated), -6.68%; with `CCn1c(C2CCNCC2)nn(CCn2ccc(C)n2)c1=O`, -21.2%.

Turning to `CCC(Nc1nc(C)nc2c1cnn2C)c1ncnn1CC` (configuration not stated), the cytotoxicity at 70.5 h was -1.28%. With `CC(C)c1cc(C(=O)N2CCN(c3ccc(F)c(Cl)c3)CC2)n(C)n1` the figure was -4.92%; with `COc1ccc(C2(C(=O)NCc3c(C)ncc4c3CCNC4)CC2)cc1`, -5.87%; with `O=C(O)C1(Cc2ccc(F)cc2F)CCCN(Cc2ccncc2)C1` (configuration not stated), -5.04%.

On to `Cc1nccn1CCN(C)c1nc(-c2ccc(Cl)cc2)nc2c1CNC2`, for which the cytotoxicity at 70.5 h is -3.99%. Take `Cn1c(CN2CCOCC2)nnc1C1CCCN(C(=O)CCC2CC2)C1` (configuration not stated): the cytotoxicity at 70.5 h was -6.43%.

Consider `CSc1nccc(N2CCC3(CCCN(CCc4ccccc4)C3)C2)n1` (configuration not stated), for which the cytotoxicity at 70.5 h is 6.79%. For `COCCn1cncc1-c1nc2c([nH]1)CC(C)(C)CNC2=O`, the cytotoxicity at 70.5 h is -4.1%. The value for `CN1CCC(N2CCN(C(C(=O)O)c3cccc4c3OCC4)CC2)CC1` (configuration not stated) was 2.04%. Consider `O=C(NCCCSC1CCCCC1)C1NCCc2[nH]cnc21` (configuration not stated), for which the cytotoxicity at 70.5 h is -1.27%. As for `CC(=O)N1CCC(NCc2cccnc2N(C)Cc2ccccc2)CC1`, the cytotoxicity at 70.5 h is -6.72%. Take `CNc1ncc(CN(C)c2ncnc3onc(C)c23)cn1`: the cytotoxicity at 70.5 h is 8.52%. The value for `CCOc1ccc(Cl)cc1C(C(=O)O)N1CCCC1` (configuration not stated) was -2.88%. Regarding `Cc1nccn1CCN(C)C(=O)C1CCCN(C2CCOCC2)C1` (configuration not stated), the cytotoxicity at 70.5 h was -4.07%. Turning to `O=C(O)[C@@H]1CN(Cc2c[nH]c(CC3CCCC3)n2)C[C@H]1c1ccncc1`, the cytotoxicity at 70.5 h was -4.68%. On to `C=C(C)COc1cccc(CNCc2nc3ccccc3c(=O)[nH]2)c1`, for which the cytotoxicity at 70.5 h was 0.0265%.

`O=C(c1cnccn1)N1C[C@@H]2CC[C@H](C1)N(S(=O)(=O)c1cccnc1)C2`: the cytotoxicity at 70.5 h was determined as 7.54%. Regarding `O=C([C@H](O)c1ccccc1)N1CCN(c2cccc(Cl)c2)C(=O)C1`, the cytotoxicity at 70.5 h was determined as 13.8%. The value for `c1ccc(Cn2cccn2)c(CN2CCC3(CCCNC3)C2)c1` (configuration not stated) was 0.428%. Consider `COc1ccc(OC2CCN(C(=O)CCc3n[nH]c(C)n3)CC2)cc1`, for which the cytotoxicity at 70.5 h came to 22.6%. In the case of `CCN1CCN(C[C@@H]2CN(Cc3cnc(C(C)C)nc3)C[C@@H]2CO)CC1`, the cytotoxicity at 70.5 h was 13.2%. With `CCOC(=O)c1coc(N2CCN(Cc3cccc(OC)c3)C(=O)C2)n1`, the cytotoxicity at 70.5 h came to 4.55%.

As for `CN(C(=O)c1ccccc1NCC(=O)O)C(C1CC1)C1CC1`, the cytotoxicity at 70.5 h is -10.9%. Take `CN(CC(=O)N1CCC(Cc2cccc(C(N)=O)c2)C1)C1CCCC1` (configuration not stated): the cytotoxicity at 70.5 h was 20.8%.

Take `CCCc1nc(CN(CC)C(=O)c2ccc3c(c2)nnn3C)no1`: the cytotoxicity at 70.5 h is -2.39%. Regarding `Cc1ccsc1-c1nccn1CCS(C)(=O)=O`, the cytotoxicity at 70.5 h worked out at 16.2%. `c1cc(-c2cn[nH]c2)ccc1CN1CCNCC1`: the cytotoxicity at 70.5 h was -3.83%.

In the case of `Cc1ccc2nc(C3CCCN3Cc3cccc(CCN)c3)[nH]c2c1` (configuration not stated), the cytotoxicity at 70.5 h is -4.63%.

As to `CC(c1nccs1)N(C)S(=O)(=O)NCc1ccccc1` (configuration not stated), the cytotoxicity at 70.5 h is 25.4%. The value for `CCc1nc2ccccc2n1C(CC)C(=O)N(C)CCc1noc(C)n1` (configuration not stated) was -20.6%; that for `OCC1(CC2CCCCO2)CCN(c2cnc3ccccc3n2)CC1` (configuration not stated) was -12.6%; that for `COC(=O)N1CCCCC1C(=O)N1CCC(c2ccncc2)CC1` (configuration not stated) was -3.09%. Turning to `COCCC1(CO)CCCN(C(=O)c2cc(C#N)c(=O)[nH]c2C)C1` (configuration not stated), the cytotoxicity at 70.5 h is -0.759%. With `O=C(NCc1ccc2c(c1)OCO2)c1ccccc1C1CCNC1` (configuration not stated) the figure was 38%; with `CN(Cc1cc2cc(F)ccc2[nH]1)C(=O)C1CC(=O)N(C(C)(C)C)C1` (configuration not stated), -1.21%; with `CCC(C(=O)N(C)Cc1cc(-c2ccccc2)n[nH]1)n1cccn1` (configuration not stated), -13.1%.

Regarding `c1ccc(CCCn2ccnc2-c2cn(C3CCNCC3)nn2)nc1`, the cytotoxicity at 70.5 h stood at 22.4%. With `CCNc1ncc(C(=O)NC(c2ccccc2)c2ccco2)cn1` (configuration not stated), the cytotoxicity at 70.5 h was -9.5%. In the case of `Cc1ccc2cc(CNCCCO)c(=O)[nH]c2c1`, the cytotoxicity at 70.5 h is -2.37%.

For `CC(=O)N1CCCCC1c1cc(C(=O)N2CCOCC2)[nH]n1` (configuration not stated), the cytotoxicity at 70.5 h was -7.33%. On to `Cc1ccccc1CNc1nc(O)cc(C2CC(=O)N(C)C2)n1` (configuration not stated), for which the cytotoxicity at 70.5 h is -7.17%.

In the case of `COc1cccc(CNc2nc(O)cc(C3CC(=O)N(C)C3)n2)c1` (configuration not stated), the cytotoxicity at 70.5 h was -11.6%. Take `CNc1cc(CNC(=O)c2ccccc2)nc(-c2ccncc2)n1`: the cytotoxicity at 70.5 h turned out to be 11.4%. With `CNc1cc(CNC(=O)c2ccccn2)nc(-c2ccncc2)n1` the figure was 11.9%; with `O=C(CC1CCCC1)N1CCCC(c2n[nH]c3nccnc23)C1` (configuration not stated), -0.397%. Consider `CC(=O)N1CCC(c2nccnc2Oc2ccccc2)CC1`, for which the cytotoxicity at 70.5 h stood at 1.62%. Regarding `Cn1ccc(C(=O)N2CCC(Cc3cccc4cccnc34)C2)n1` (configuration not stated), the cytotoxicity at 70.5 h was -5.77%. For `Cn1ccc(C(=O)N2CCC(Cc3cnc4[nH]ccc4c3)CC2)n1`, the cytotoxicity at 70.5 h is -5.86%. As to `CNc1cccc(C2CCCN(C(=O)c3ccncc3)C2)n1` (configuration not stated), the cytotoxicity at 70.5 h is -2.97%. As for `Cn1ccnc1CN1CCCC(Cc2ccccn2)C1` (configuration not stated), the cytotoxicity at 70.5 h is 34.7%.

For `O=C(c1cccs1)N1CCC(O)(CN2CCc3ccccc3C2)C1` (configuration not stated), the cytotoxicity at 70.5 h is -2.95%. With `COc1ccc(CN(C)[C@@H]2CN(C(=O)c3cccs3)C[C@H]2O)cc1`, the cytotoxicity at 70.5 h is -6.31%. For the compound `COc1cnc(C2(O)CCN(C(=O)c3cccnc3)CC2)c(OC)n1`, the cytotoxicity at 70.5 h is -4.88%. As for `COc1cnc(C2(O)CCN(C(=O)c3ccncc3)CC2)c(OC)n1`, the cytotoxicity at 70.5 h was -4.69%.

With `CC(=O)NCCc1cc(N2CCN(C(C)=O)CC2)nc(C2CC2)n1`, the cytotoxicity at 70.5 h is -5.29%. Consider `CNc1cncc(C2CCCN2Cc2ccccn2)n1` (configuration not stated), for which the cytotoxicity at 70.5 h is -6.51%. As for `CC(=O)N1CCCCC1c1nc2c(c(N3CCCCC3)n1)CN(C)CC2` (configuration not stated), the cytotoxicity at 70.5 h is -1.02%. On to `CC(C)c1nccn1-c1cccc(C2CCN(C)CC2)n1`, for which the cytotoxicity at 70.5 h is 27.3%.

As for `Cc1cc(-c2cnn(CCNC(=O)C3CCCO3)c2C2CC2)on1` (configuration not stated), the cytotoxicity at 70.5 h is -9.36%.

Turning to `O=C(Cn1cccnc1=O)NC(Cc1ccsc1)c1ccccn1` (configuration not stated), the cytotoxicity at 70.5 h was -11.2%. The value for `CS(=O)(=O)c1snnc1C1CCN(Cc2ccncc2)CC1` was -7.11%.

Consider `COc1cc2nc3n(c(=O)c2cc1OC)CCN(C(C)=O)CC3`, for which the cytotoxicity at 70.5 h is -13.7%. For `CCCNCc1cc2c(C)cc(C)cc2n2c(=O)n(C)nc12`, the cytotoxicity at 70.5 h was -8.78%. With `O=C(Cn1ccnc1)N1C[C@@H]2CC[C@H](Oc3ccccc3Cl)[C@@H]2C1` the figure was 1.01%; with `CN(C)CC(=O)N1C[C@@H]2CC[C@H](Oc3ccccc3Cl)[C@@H]2C1`, -15.6%; with `CC(C)N1CCC(Cc2cnc(-c3cccc(C(=O)O)c3)cn2)C1` (configuration not stated), -19.1%. `CN(C)Cc1ccnc(C2CCCN2Cc2ccncc2)n1` (configuration not stated): the cytotoxicity at 70.5 h came out at 18.5%. `Cc1cnccc1CN1C[C@@H](O)[C@H](Oc2ccccc2)C1`: the cytotoxicity at 70.5 h was -5.34%. In the case of `CNC(=O)C1(c2cnccn2)CCCN1C(=O)c1ccccc1OC` (configuration not stated), the cytotoxicity at 70.5 h was determined as 13.3%.

Turning to `Cc1ccccc1S(=O)(=O)N1CCCCC1c1ccn[nH]1` (configuration not stated), the cytotoxicity at 70.5 h was -28.4%. Regarding `Cc1cncc(C2CCCN(C(=O)c3ccc(C)[nH]c3=O)C2)n1` (configuration not stated), the cytotoxicity at 70.5 h was -4.5%. Turning to `Cn1nc(C2CCCN(Cc3cccc(F)c3)C2)c2nccnc21` (configuration not stated), the cytotoxicity at 70.5 h is -4.33%. In the case of `OC[C@H]1CC[C@]2(CC1)CN(Cc1ccccn1)Cc1ccccc1O2`, the cytotoxicity at 70.5 h was -13.2%. Turning to `Cc1cc(C)n(CC(=O)NC(Cc2ccsc2)c2ccccn2)c(=O)n1` (configuration not stated), the cytotoxicity at 70.5 h stood at 13.9%.

With `Cc1ccc(=O)n(CC2(O)CCN(Cc3cc(C)c(O)c(C)c3)CC2)n1`, the cytotoxicity at 70.5 h was 22.7%. The value for `Cc1nc(O)cc(C2CCN(Cc3cccc(F)c3F)C2)n1` (configuration not stated) was -14.5%; that for `COc1ccc(F)c(CN2CCC(c3cc(O)nc(C)n3)C2)c1` (configuration not stated) was 32.2%. With `Cc1ccc(CN(Cc2cccnc2)C2CC(C)(C)NC(C)(C)C2)s1`, the cytotoxicity at 70.5 h is 9.23%.
